Measured values taken from US20070203118A1, “SUBSTITUTED TETRAHYDROISOQUINOLINES USED IN THE FORM OF MMP INHIBITORS, METHOD FOR THE PRODUCTION AND USE THEREOF IN THE FORM OF DRUGS” (SANOFI-AVENTIS DEUTSCHLAND GMBH, priority 2004, published 2007).

Experiments:
Assay type in all cases: biochemical
[1] = target: T1, catalytic domain of human stromelysin (MMP-3) (Homo sapiens, UniProt P08254); assay: Enzymatic activity of the catalytic domain of human stromelysin (MMP-3), fluorogenic substrate
T1 construct: Preparation and Determination of the Enzymatic Activity of the Catalytic Domain of Human Stromelysin (MMP-3); made in house
T1 sequence (P08254 100-272 limits assumed): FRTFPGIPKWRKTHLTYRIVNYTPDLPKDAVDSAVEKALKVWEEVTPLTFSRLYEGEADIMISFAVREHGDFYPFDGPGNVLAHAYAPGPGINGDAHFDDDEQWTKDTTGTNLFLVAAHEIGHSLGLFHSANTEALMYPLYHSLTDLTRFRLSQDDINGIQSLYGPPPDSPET
Protocol: Preparation and Determination of the Enzymatic Activity of the Catalytic Domain of Human Stromelysin (MMP-3) and of Neutrophil Collagenase (MMP-8)
The two enzymes stromelysin (MMP-3) and neutrophil collagenase (MMP-8) were prepared by the method of Ye et al. (Biochemistry; 31 (1992) pages 11 231-11 235). The enzymic activity or the effect of the enzyme inhibitor was measured by incubating 10 μl of enzyme solution with 10 μl of a 3% strength (v/v) buffered dimethyl sulfoxide solution which contained the enzyme inhibitor where appropriate, for 15 minutes. After addition of 10 μl of a 3% strength (v/v) aqueous dimethyl sulfoxide solution which contained 1 mmol/l of the substrate, the enzymic reaction was followed by fluorescence spectroscopy (328 nm (ex)/393 nm(em)). The enzymic activity is presented as increase in extinction/minute.
The IC50 values listed in Table 4 were determined as the inhibitor concentrations leading in each case to 50% inhibition of the enzyme. The buffer solution contained 0.05% Brij (Sigma, Deisenhofen, Germany) and 0.1 mol/l Tris/HCl, 0.1 mol/l NaCl, 0.01 mol/l CaCl2 and 0.1 mol/l piperazine-N,N′-bis[2-ethanesulfonic acid] (pH=7.5).
The MMP-3 enzyme solution contained 2.3 μg/ml and the MMP-8 enzyme solution 0.6 μg/ml of one of the enzyme domains prepared by the method of Ye et al. The substrate solution contained 1 mmol/l of the fluorogenic substrate (7-methoxycoumarin-4-yl)acetyl-Pro-Leu-Gly-Leu-3-(2′,4′-dinitrophenyl)-L-2,3-diaminopropionyl-Ala-Arg-NH2 (Bachem, Heidelberg, Germany).

[2] = target: T2, catalytic domain of human collagenase-3 (MMP-13) (Homo sapiens, UniProt P45452); assay: Enzymatic activity of the catalytic domain of human collagenase-3 (MMP-13), fluorogenic substrate
T2 construct: Determination of the Enzymatic Activity of the Catalytic Domain of Human Collagenase-3 (MMP-13); purchased INVITEK, Berlin
Protocol: Determination of the Enzymatic Activity of the Catalytic Domain of Human Collagenase-3 (MMP-13)
Activation of the proenzyme: 2 parts by volume of proenzyme were incubated with 1 part by volume of APMA solution at 37° C. for 1.5 hours. The APMA solution was prepared from a 10 mmol/l p-aminophenylmercuric acetate solution in 0.1 mmol/l NaOH by dilution with 3 parts by volume of Tris/HCl buffer pH 7.5 (see below). The pH was adjusted to between 7.0 and 7.5 by adding 1 mmol/l HCl. After activation of the enzyme it was diluted with the Tris/HCl buffer to a concentration of 1.67 μg/ml.
(§1) The enzymic activity was measured by incubating 10 μl of enzyme solution with 10 μl of a 3% strength (v/v) buffered dimethyl sulfoxide solution (reaction 1) for 15 minutes. The enzyme inhibitor activity was measured by incubating 10 μl of enzyme solution with 10 μl of a 3% strength (v/v) buffered dimethyl sulfoxide solution which contained the enzyme inhibitor (reaction 2).
(§2) The enzymic reaction both in the case of reaction 1 and in the case of reaction 2 was followed after addition of 10 μl of a 3% strength (v/v) aqueous dimethyl sulfoxide solution which contained 0.075 mmol/l of the substrate by fluorescence spectroscopy (328 nm (extinction)/393 nm (emission)).
The enzymic activity has been presented as increase in extinction/minute. The effect of the inhibitor was calculated as percentage inhibition by the following formula: % inhibition=100−[(increase in extinction/minute in reaction 2)/(increase in extinction/minute in reaction 1)×100].
The IC50, which is the concentration of inhibitor which is necessary for 50% inhibition of the enzymic activity, was determined graphically by plotting the percentage inhibitions at various inhibitor concentrations.
The buffer solution contained 0.05% Brij (Sigma, Deisenhofen, Germany) and 0.1 mol/l Tris/HCl, 0.1 mol/l NaCl, 0.01 mol/l CaCl2 (pH=7.5). The enzyme solution contained 1.67 μg/ml of the enzyme domain. The substrate solution contained 0.075 mmol/l of the fluorogenic substrate (7-methoxycoumarin-4-yl)acetyl-Pro-Leu-Gly-Leu-3-(2′,4′-dinitrophenyl)-L-2,3-diaminopropionyl-Ala-Arg-NH2 (Bachem, Heidelberg, Germany).

[3] = target: T3, catalytic domain of human collagenase-1 (MMP-1) (Homo sapiens, UniProt P03956); assay: Enzymatic activity of the catalytic domain of human collagenase-1 (MMP-1), fluorogenic substrate
T3 construct: Determination of the Enzymatic Activity of the Catalytic Domain of Human Collagenase-1 (MMP-1); purchased Biocol, Potsdam MMP1
T3 sequence (P03956 100-269 limits assumed): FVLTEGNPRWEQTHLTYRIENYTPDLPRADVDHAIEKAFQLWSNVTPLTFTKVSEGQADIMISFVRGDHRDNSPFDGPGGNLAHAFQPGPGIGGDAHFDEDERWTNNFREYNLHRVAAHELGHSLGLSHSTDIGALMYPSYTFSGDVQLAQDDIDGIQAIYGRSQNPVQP
Protocol: Determination of the Enzymatic Activity of the Catalytic Domain of Human Collagenase-1 (MMP-1)
Activation of the Pro enzyme: 2 parts by volume of Pro enzyme are incubated with 1 part by volume of APMA solution at 37° C. for 1 hour. The APMA solution is prepared from a 10 mmol/l p-aminophenylmercuric acetate solution in 0.1 mmol/l NaOH by dilution with 3 parts by volume of tris/HCl buffer pH7.5 (see below). The pH is adjusted to between 7.0 and 7.5 by adding 1 mmol/l HCl. After activation of the enzyme, it is diluted with the tris/HCl buffer to a concentration of 2.5 μg/ml.
as §1, with “is” for “was”, “contains” for “contained”
as §2, with “is” for “was”, “contains 0.3” for “contained 0.075”, “(emission)), and the enzymic activity is presented as increase in extinction per minute.” for “(emission)).”
The effect of the inhibitor is calculated as percentage inhibition by the following formula: % inhibition=100−[(increase in extinction/minute in reaction 2)/increase in extinction/minute in reaction 1)×100].
The IC50, i.e. the inhibitor concentration necessary for 50% inhibition of the enzymic activity, is determined graphically by plotting the percentage inhibitions at various inhibitor concentrations.
The buffer solution contains 0.05% Brij (Sigma, Deisenhofen, Germany) and 0.1 mol/l tris/HCl, 0.1 mol/l NaCl, 0.01 mol/l CaCl2 (pH=7.5).
The enzyme solution contains 2.5 μg/ml of the enzyme domain.
The substrate solution contains 0.3 mmol/l of the fluorogenic substrate (7-methoxycoumarin-4-yl)acetyl-Pro-Leu-Gly-Leu-3-(2′,4′-dinitrophenyl)-L-2,3-diaminopropionyl-Ala-Arg-NH2 (Bachem, Heidelberg, Germany).

With “2-{2-[4-(4-fluorophenoxy)phenyl]ethanesulfonyl}-1,2,3,4-tetrahydroisoquinoline-1-hydroxycarboxamide [Compound 20]” the IC50 [1] was 23 nM, the IC50 [2] was 2.2 nM and the IC50 [3] was 300 nM.

`O=C(NO)[C@H]1c2ccccc2CCN1S(=O)(=O)c1ccc(Oc2ccc(Cl)cc2)cc1` [Compound 9] gave an IC50 [1] of 23 nM, an IC50 [2] of 2.1 nM and an IC50 [3] of 42 nM.

With `O=C(NO)[C@H]1c2ccccc2CCN1S(=O)(=O)c1ccc(Oc2ccncc2)cc1` [Compound 11] the IC50 [1] was 25 nM, the IC50 [2] was 2.3 nM and the IC50 [3] was 500 nM.

`COc1cc2c(cc1OC)[C@@H](C(=O)NO)N(S(=O)(=O)c1ccc(-c3ccc(Cl)cc3)cc1)CC2` [Compound 15] gave an IC50 [1] of 20 nM, an IC50 [2] of 2 nM and an IC50 [3] of 300 nM.

With `COc1ccc(F)c2c1[C@H](C(=O)NO)N(S(=O)(=O)c1ccc(-c3ccc(Cl)cc3)cc1)CC2` [Compound 18] the IC50 [1] was 800 nM, the IC50 [2] was 7.5 nM and the IC50 [3] was 4000 nM.

Work on `O=C(NO)[C@H]1c2ccccc2CCN1S(=O)(=O)c1ccc(Oc2ccc(C(F)(F)F)cc2)cc1` [Compound 21, (R)-2-[4-(4-trifluoromethylphenoxy)benzenesulfonyl]-1,2,3,4-tetrahydro-isoquinoline-1-hydroxycarboxamide] yielded an IC50 [1] of 33 nM, an IC50 [2] of 2.5 nM and an IC50 [3] of 1000 nM.

With `O=C(NO)[C@H]1c2ccccc2CCN1S(=O)(=O)c1ccc(Oc2ccc(OCC(F)(F)F)cc2)cc1` [Compound 22] the IC50 [1] was 520 nM, the IC50 [2] was 130 nM and the IC50 [3] was 1600 nM.

With `O=C(NO)[C@H]1c2ccccc2CCN1S(=O)(=O)c1ccc(Oc2ccc(OC(F)(F)F)cc2)nc1` [Compound 43, (R)-2-[6-(4-trifluoromethoxyphenoxy)pyridine-3-sulfonyl]-1,2,3,4-tetrahydro-isoquinoline-1-hydroxycarboxamide] the IC50 [1] was 300 nM, the IC50 [2] was 30 nM and the IC50 [3] was > 10000 nM.

Compound `O=C(NO)[C@H]1c2ccccc2CCN1S(=O)(=O)c1ccc(Oc2ccc(Cl)cc2)nc1` [Compound 45, (R)-2-[6-(4-chlorophenoxy)pyridine-3-sulfonyl]-1,2,3,4-tetrahydroisoquinoline-1-hydroxycarboxamide] has an IC50 [1] of 45 nM, an IC50 [2] of 8 nM and an IC50 [3] of 2000 nM.

“(R)-4-(1-hydroxycarbamoyl-3,4-dihydro-1H-isoquinoline-2-sulfonyl)phenyl benzoate [Compound 48]” was tested, and the IC50 [1] was 26 nM, the IC50 [2] was 3 nM and the IC50 [3] was 89 nM.
